Experimental data as given in article PMC8333620, “Novel Tl(III) complexes containing pyridine-2,6-dicarboxylate derivatives with selective anticancer activity through inducing mitochondria-mediated apoptosis in A375 cells” (Scientific Reports, 2021).
Where two headings read alike, the source gives them in different places.

Experiments:
[1] = tested on: A375 (a human melanoma) cell line; assay: MTT cytotoxicity assay, A375; format: cell-based; details: for IC50: read-out: Cytotoxicity (IC50 ± SEM) against A375
Method: (§1) In this study, A375 (a human melanoma), HT29 (a human colon adenocarcinoma), and HFF (a human foreskin fibroblast) cell lines were provided from the Pasteur Institute (Iran). […] 10 mM stock solutions of compounds were prepared in DMSO and diluted in a fresh medium for use. The final concentration of DMSO never exceeded 0.1% (v/v). […] Then the medium was replaced with the respective medium containing ligands or Tl(III) complexes at different concentrations and incubated for 48 h. 10 μL of MTT was added and the medium was removed after 4 h of incubation. Finally, the violet crystal was solubilized in 100 μL DMSO and the absorbance was measured at 570 nm. IC50 value was measured by the standard method. The evaluations were carried out in triplicate[21],[23].

[2] = tested on: HT29 (a human colon adenocarcinoma) cell line; assay: MTT cytotoxicity assay, HT29; format: cell-based; details: read-out: Cytotoxicity (IC50 ± SEM) against HT29
Method: as §1

[3] = MTT cytotoxicity assay, HFF; format: cell-based, human; details: human
Method: as §1

[4] = tested on: HFF (a human foreskin fibroblast) cell line; assay: MTT cytotoxicity assay, HFF; format: cell-based; details: MTT, 48 h; read-out: Cytotoxicity (IC50 ± SEM) against HFF
Method: as §1

[5] = Cyclic voltammetry of the complexes; format: physicochemical; details: versus Ag/AgCl, KCl 0.1 M, GCE, scan rate 50 V/s
Text: The electrochemical behavior of the complexes and also their ligands was studied by the cyclic voltammograms in the potential range of + 1.5 to –1.5 V and a scan rate of 50 Vs^–1. […] Redox couples at E^0ˊ 0.109, –0.051, and 0.244 V were obtained for C1, C2, and C3, respectively. The electrochemical oxidation of all three complexes seems be a one-stage process which includes irreversible couples with EC = –0.363 V, EA = 0.472 V for C1, EC = –0.271 V, EA = 0.220 V for C2 and EC = –0.337 V, EA = 0.581 V for C3. The peaks can be interpreted according to the Tl(III)/Tl(I) redox system for complexes. […] Therefore, redox couples are related to only the metal centers in complexes[27],[28].
Figure 4 Cyclic voltammogram of complexes c = 4 × 10^–3 mol/dm^3 in H2O medium, KCl (0.1 M) at GCE, scan rate 50 V/s.
Pyridine-2,6-dicarboxylic acid, 4-hydroxy-pyridine-2,6-dicarboxylic acid, 2-aminobenzimidazole, 4-aminopyridine, and thallium(III) nitrate trihydrate were purchased from the commercial sources and were used as received. The solvents were distilled for all synthetic works. Melting points were obtained on an Electrothermal IA-9100 apparatus. The FT-IR spectra were recorded on a Bruker Vector 22 FT-IR spectrometer using KBr pellets. Electronic spectra were recorded on Specord 210, Analytik Jena spectrophotometer in the range of 200–900 nm at room temperature. The ^1HNMR spectra were obtained from Bruker Ultrashield 400 spectrometer. Microanalyses (C, H, N) were measured with a Perkin-Elmer 2004(II) elemental analyzer. Electrochemical experiments were performed using a µAUTOLAB modular electrochemical system (ECO Chemie, Utrecht, the Netherlands) equipped with a PGSTAT type III module driven by GPES software in conjunction with a conventional three-electrode system an Ag/AgCl/3 M KCl and platinum wire as reference and counter electrode respectively and a GC as the working electrode.

A375 cells = assay: Intracellular ROS (H2DCF-DA, flow cytometry), A375; format: cell-based, human; details: A375, IC50 concentrations, 24 h
Method: The generation of intracellular ROS was evaluated by reactive oxygen species assay kit. 2 mL of A375 cells (1 × 10^6 cells/mL) were induced with C1–C3 (at IC50 concentrations) at 37 °C for 24 h, serum-free medium washed twice. Then, the cells were incubated in 2 mL of serum-free medium containing H2DCF-DA (2 μM) for 30 min at 37 °C, serum-free medium washed twice. Cells were collected and assayed by flow cytometer with excitation wavelength at 489 nm and emission wavelength at 524 nm, and ten thousand events were collected. The DCF fluorescence peak for this cell sample was evaluated and data were analyzed by FlowJo software. This test was performed as explained on HFF cells treatment to C3 (at the highest concentration)[38].

[6] = MTT, 48 h, read-out: Cytotoxicity (IC50 ± SEM) against HFF

Compound: O=C(O)c1cccc(C(=O)O)n1 [pydcH2, 2,6-Pyridinedicarboxylic acid]
- IC50 ([1]; Homo sapiens, A-375, 48 h): 442.6 ± 1.22 µM
- IC50 ([2]; Homo sapiens, HT-29, 48 h): 430.2 ± 2.09 µM
- IC50 at 48 h [3, 6]: > 500 µM

Compound: Nc1ccncc1 [4-apy, 4-aminopyridine]
- IC50 ([1]; Homo sapiens, A-375, MTT, 48 h): 491.9 ± 1.56 µM
- IC50 ([2]; Homo sapiens, HT-29, MTT, 48 h): > 500 µM
- IC50 [3, 6]: > 500 µM

Compound: Nc1nc2ccccc2[nH]1 [2-ab, 2-aminobenzimidazole]
- IC50 ([1]; Homo sapiens, A-375, 48 h): > 500 µM
- IC50 ([2]; Homo sapiens, HT-29, 48 h): > 500 µM
- IC50 at 48 h [3]: > 500 µM

Compound: (2-abH)[Tl(hpydc)2(H2O)2]∙6H2O [C2]
- Viability inhibition, A375 ([1]; MTT, 48 h, concentration not given): 35.28%
- IC50 ([1]; MTT, 48 h): 421.1 ± 0.55 µM
- IC50 ([2]; MTT, 48 h): 486.2 ± 0.69 µM
- IC50 [4]: > 500 µM
- formal potential E0' ([5]; 4 × 10^–3 mol/dm^3 in H2O): –0.051 V
- EA (anodic peak potential) ([5]; H2O): 0.220 V
- EC (cathodic peak potential) ([5]; H2O): –0.271 V
- ROS level (DCF oxidation), more effective than vehicle control-treated (A375 cells): 23.5%
